The values below come from patent US20030134413A1, “Cell production” (priority 2000, published 2003).

Type in all cases: cell-based, mouse
For one assay, the system named is EBM^9 explants. Description: Neural crest formation from EBM^9 explants. The procedure:
Sox 10 probes were transcribed from pSox10E.1 (obtained from Dr. Peter Koopman, IMB, Brisbane, Australia). Anti-sense and sense probes were transcribed from HindIII or BamHI cut pSox10E.1 with […] or T3 RNA polymerase respectively.
EBM^9 were collected, washed in PBS, treated with 0.5 mM EGTA pH 7.5 for 3 minutes, washed in PBS and disaggregated to small clumps (20-200 cells) by trituration. Cell clumps were allowed to settle and single cells liberated during trituration were removed with the supernatant before plating onto tissue culture grade plasticware which had been coated with cellular fibronectin (1 μg/cm^2; obtained from M. D. Bettess, Department of Biochemistry, Adelaide University, Australia) and allowed to dry. Cells were cultured in Hams F12 containing 3% FCS and 10 ng/ml FGF2 and supplemented with either 0.1% 25 μM staurosporine (Sigma) in DMSO (final concentration, 25 nM) or 0.1% DMSO. Cellular aggregates were allowed to differentiate for 48 hours before fixation in 4% PFA for 30 minutes.

Assay [1] relates to ES cells. Description: Morphology of ES cell aggregates in suspension culture. Conditions: medium supplemented with 100 units of LIF; data not shown. On the procedure: (§1) All cell aggregates were formed from single cell suspensions (1×10^5 cells/ml) of ES or EPL cells cultured in bacterial petri dishes. ES cell and EPL cell embryoid bodies (EB and EPLEB respectively) were formed as described in Lake et al. (2000). EBM, cell aggregates formed and maintained in MEDII, were formed from ES cells aggregated in IC:DMEM (DMEM (Gibco BRL #12800) with 10% foetal calf serum (FCS; Commonwealth Serum Laboratories), […] gentamycin, 1 mM L-glutamine and 0.1 mM B-mercaptoethanol (B-ME)) supplemented with 50% MEDII. Aggregates were divided 1 in 2 on days 2 and 4, and medium was changed on days 2 and 4 and then daily until collection. […] The time in days from formation of aggregates was denoted by superscript with the day of formation denoted as day 0. For example, EBM 5 days after formation are represented as EBM^5.
For continued suspension culture of EB and EBM, aggregates on day 7 were transferred to serum free medium (50% DMEM, 50% Hams F12 (Gibco BRL # 11765) supplemented with 1× ITSS supplement (Boehringer Mannhiem) and 10 ng/ml FGF2 (Peprotech Inc.)).
EB^4 and EBM^4 were fixed with 4% PFA for 30 minutes before embedding in paraffin wax and sectioning as described in Hogan et al., 1994. 7 μm sections were stained with haematoxylin:eosin as described by Kaufman, 1992 or with Hoescht […] (5 μg/ml) in PBS; Sigma) for 5 minutes.

Assay [2] concerns ES cells. Description: Differentiation potential of seeded ES cell aggregates (neurons, beating cardiocytes). Particulars: 10-20 ng/ml added to the medium from day 4. On the procedure: as §1
For adherent culture, aggregates were seeded onto gelatin treated tissue culture grade plasticware (Falcon) on day 7 of development in 500 μl DMEM supplemented with 10% FCS (Commonwealth serum Laboratories). […]
EB^7 and EBM^7 were seeded as described above and assessed on days 8, 10, 12 and 14 for the presence of neurons, identified morphologically by the presence of axonal projections (and confirmed by the expression of NF200; data not shown), and beating cardiocytes, identified morphologically by rhythmical contraction of cells within the aggregate.

In the case of `CN[C@@H]1C[C@H]2O[C@@](C)([C@@H]1OC)n1c3ccccc3c3c4c(c5c6ccccc6n2c5c31)C(=O)NC4` [staurosporine], the “Sox10 expression by in situ hybridisation” value with EBM^9 explants (25 nM, 48 hours culture) is “observed in all cells”. Further, the “morphology of EBM explants” value with EBM^9 explants (25 nM, within three hours of seeding) is recorded as “surrounded by a halo of differentiating cells”. In addition, in the assay with EBM^9 explants (data not shown), the “concentration required for uniform differentiation” value is listed as “greater than 10 nM”. Consider “LIF: cytokine leukaemia inhibitory factor”, for which the “morphology and gene expression profile of ES cell aggregates” value in the assay with ES cells [1] is “did not duplicate the morphology or gene expression profile of EBM”.

B1: FGF4: growth factor from the FGF family (protein, UniProt P08620 31-206, looked up)
Fibroblast growth factor 4: APTAPNGTLEAELERRWESLVALSLARLPVAAQPKEAAVQSGAGDYLLGIKRLRRLYCNVGIGFHLQALPDGRIGGAHADTRDSLLELSPVERGVVSIFGVASRFFVAMSSKGKLYGSPFFTDECTFKEILLPNNYNAYESYKYPGMFIALSKNGKTKKGNRVSPTMKVTHFLPRL
In the case of B1, the “influence on the outcome of differentiation” value in the assay with ES cells [2] is recorded as “did not influence the outcome of differentiation”.
